Drawing on the supplement of paper PMC10307832, this text covers relative viability for nine cell lines.

Holding throughout (test): relative viability (nuclei count vs DMSO), 5 days (fraction); higher = more cells survive
Compound in the experiment “TGX 221 + Linsitinib”: CC1=CN2C(=O)C=C(N=C2C(=C1)C(C)NC3=CC=CC=C3)N4CCOCC4 [TGX 221] + C[C@]1(O)C[C@@H](c2nc(-c3ccc4ccc(-c5ccccc5)nc4c3)c3c(N)nccn32)C1 [Linsitinib] (partner 1 µM)
In outline: (§1)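 Relative viability divides the nuclei count in treated wells by that in vehicle wells. Lung cancer cell lines were seeded in 1536-well plates, dosed by pin tool the next day, and fixed and stained after 5 days in one step with final 0.05% Triton X-100, 1% formaldehyde and 1 ug/ml Hoechst. Dosing was a single drug or a fixed anchor-drug dose plus five library-drug doses (not always all listed) in √10 steps, and values are medians of duplicate plates imaged at 4×.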

Compound in experiment [1]: O=C(CCCCCCNC(=O)c1cnc(N(c2ccccc2)c2ccccc2)nc1)NO [Ricolinostat] + CCNC(=O)c1noc(-c2cc(C(C)C)c(O)cc2O)c1-c1ccc(CN2CCOCC2)cc1 [Luminespib] (partner 0.01 µM)
The method, boiled down: as §1

Compound in the experiment “Ricolinostat + OSI-027”: O=C(CCCCCCNC(=O)c1cnc(N(c2ccccc2)c2ccccc2)nc1)NO [Ricolinostat] + COc1cccc2cc(-c3nc([C@H]4CC[C@H](C(=O)O)CC4)n4ncnc(N)c34)[nH]c12 [OSI-027] (partner 0.5 µM)
In outline:
as §1

Compound in experiment [2]: O=C(CCCCCCNC(=O)c1cnc(N(c2ccccc2)c2ccccc2)nc1)NO [Ricolinostat] + Nc1nc2[nH]cc(CCc3ccc(C(=O)N[C@@H](CCC(=O)O)C(=O)O)cc3)c2c(=O)[nH]1 [Pemetrexed] (partner 0.2 µM)
The method, boiled down: as §1

Take NCI-H1993: the relative viability with TGX 221 + Linsitinib (first compound 0.08 µM) was 0.806; in the experiment with TGX 221 + Linsitinib (first compound 0.253 µM) it was 0.774; with TGX 221 + Linsitinib (first compound 0.8 µM), 0.701; in the experiment with TGX 221 + Linsitinib (first compound 2.53 µM) it was 0.641; with TGX 221 + Linsitinib (first compound 8 µM), 0.735; in experiment [1] (first compound 0.253 µM), 0.941. Further, the relative viability in experiment [1] (first compound 0.8 µM) came to 0.87; in experiment [1] (first compound 2.53 µM), 0.724; in the experiment with Ricolinostat + OSI-027 (first compound 0.253 µM) it was 0.532; with Ricolinostat + OSI-027 (first compound 0.8 µM), 0.648; in the experiment with Ricolinostat + OSI-027 (first compound 2.53 µM), 0.466; in experiment [2] (first compound 0.08 µM), 0.549. Further, the relative viability in experiment [2] (first compound 0.253 µM) was found to be 0.581; in experiment [2] (first compound 0.8 µM), 0.615; in experiment [2] (first compound 2.53 µM), 0.547.

Turning to NCI-H2009, the relative viability with TGX 221 + Linsitinib (first compound 0.08 µM) was 1.22; with TGX 221 + Linsitinib (first compound 0.253 µM), 1.13; in the experiment with TGX 221 + Linsitinib (first compound 0.8 µM) it was 1.03; with TGX 221 + Linsitinib (first compound 2.53 µM), 0.994; in the experiment with TGX 221 + Linsitinib (first compound 8 µM), 0.809; in experiment [1] (first compound 0.08 µM), 0.99. In addition, the relative viability was 0.927 in experiment [1] (first compound 0.253 µM); 0.91 in experiment [1] (first compound 0.8 µM); 0.84 in experiment [1] (first compound 2.53 µM); 0.447 in the experiment with Ricolinostat + OSI-027 (first compound 0.08 µM); 0.565 in the experiment with Ricolinostat + OSI-027 (first compound 0.253 µM); 0.553 with Ricolinostat + OSI-027 (first compound 0.8 µM). In addition, the relative viability with Ricolinostat + OSI-027 (first compound 2.53 µM) is 0.567; in experiment [2] (first compound 0.08 µM), 0.977; in experiment [2] (first compound 0.253 µM), 1.02; in experiment [2] (first compound 0.8 µM), 0.965; in experiment [2] (first compound 2.53 µM) it was 0.92.

In the case of NCI-H2023, the relative viability with TGX 221 + Linsitinib (first compound 0.08 µM) turned out to be 0.546; in the experiment with TGX 221 + Linsitinib (first compound 0.253 µM), 0.469; in the experiment with TGX 221 + Linsitinib (first compound 0.8 µM), 0.395; in the experiment with TGX 221 + Linsitinib (first compound 2.53 µM), 0.321; in the experiment with TGX 221 + Linsitinib (first compound 8 µM), 0.218; in experiment [1] (first compound 0.08 µM) it was 0.761. Moreover, the relative viability in experiment [1] (first compound 0.253 µM) was 0.434; in experiment [1] (first compound 0.8 µM) it was 0.752; in experiment [1] (first compound 2.53 µM) it was 0.665; in the experiment with Ricolinostat + OSI-027 (first compound 0.253 µM), 0.446; with Ricolinostat + OSI-027 (first compound 0.8 µM), 0.343; with Ricolinostat + OSI-027 (first compound 2.53 µM) it was 0.377. The relative viability was 0.196 in experiment [2] (first compound 0.08 µM), 0.192 in experiment [2] (first compound 0.253 µM), 0.208 in experiment [2] (first compound 0.8 µM) and 0.163 in experiment [2] (first compound 2.53 µM).

Turning to NCI-H2085, the relative viability with TGX 221 + Linsitinib (first compound 0.08 µM) turned out to be 0.947; with TGX 221 + Linsitinib (first compound 0.253 µM), 0.774; in the experiment with TGX 221 + Linsitinib (first compound 0.8 µM), 0.673; with TGX 221 + Linsitinib (first compound 2.53 µM), 0.309; with TGX 221 + Linsitinib (first compound 8 µM), 0.408; in experiment [1] (first compound 0.253 µM), 0.447. Moreover, the relative viability in experiment [1] (first compound 0.8 µM) turned out to be 0.37; in experiment [1] (first compound 2.53 µM), 0.357; with Ricolinostat + OSI-027 (first compound 0.253 µM), 0.72; in the experiment with Ricolinostat + OSI-027 (first compound 0.8 µM), 0.627; with Ricolinostat + OSI-027 (first compound 2.53 µM) it was 0.414; in experiment [2] (first compound 0.253 µM), 0.799. In addition, the relative viability turned out to be 0.738 in experiment [2] (first compound 0.8 µM) and 0.758 in experiment [2] (first compound 2.53 µM).

In the case of NCI-H2087, the relative viability with TGX 221 + Linsitinib (first compound 0.08 µM) came out at 1.07; with TGX 221 + Linsitinib (first compound 0.253 µM), 1.05; in the experiment with TGX 221 + Linsitinib (first compound 0.8 µM) it was 1.16; with TGX 221 + Linsitinib (first compound 2.53 µM) it was 1.03; in the experiment with TGX 221 + Linsitinib (first compound 8 µM), 0.94; in experiment [1] (first compound 0.253 µM), 0.205. The relative viability in experiment [1] (first compound 0.8 µM) was determined as 0.15; in experiment [1] (first compound 2.53 µM), 0.159; in the experiment with Ricolinostat + OSI-027 (first compound 0.253 µM), 0.603; with Ricolinostat + OSI-027 (first compound 0.8 µM), 0.545; in the experiment with Ricolinostat + OSI-027 (first compound 2.53 µM), 0.45; in experiment [2] (first compound 0.08 µM) it was 0.656. Also, the relative viability was 0.646 in experiment [2] (first compound 0.253 µM), 0.608 in experiment [2] (first compound 0.8 µM) and 0.584 in experiment [2] (first compound 2.53 µM).

With NCI-H2126, the relative viability came to 0.632 in the experiment with TGX 221 + Linsitinib (first compound 0.08 µM); 0.604 in the experiment with TGX 221 + Linsitinib (first compound 0.253 µM); 0.579 with TGX 221 + Linsitinib (first compound 0.8 µM); 0.576 in the experiment with TGX 221 + Linsitinib (first compound 2.53 µM); 0.593 with TGX 221 + Linsitinib (first compound 8 µM); 0.919 in experiment [1] (first compound 0.253 µM). The relative viability in experiment [1] (first compound 0.8 µM) turned out to be 1.01; in experiment [1] (first compound 2.53 µM), 0.862; with Ricolinostat + OSI-027 (first compound 0.08 µM), 0.489; in the experiment with Ricolinostat + OSI-027 (first compound 0.253 µM), 0.847; with Ricolinostat + OSI-027 (first compound 0.8 µM), 0.658; with Ricolinostat + OSI-027 (first compound 2.53 µM), 0.692. Further, the relative viability in experiment [2] (first compound 0.08 µM) is 0.509; in experiment [2] (first compound 0.253 µM), 0.708; in experiment [2] (first compound 0.8 µM), 0.619; in experiment [2] (first compound 2.53 µM), 0.583.

As for NCI-H2228, the relative viability was 0.411 with TGX 221 + Linsitinib (first compound 0.08 µM); 0.624 with TGX 221 + Linsitinib (first compound 0.253 µM); 0.625 with TGX 221 + Linsitinib (first compound 0.8 µM); 0.29 with TGX 221 + Linsitinib (first compound 2.53 µM); 0.344 with TGX 221 + Linsitinib (first compound 8 µM); 0.157 in experiment [1] (first compound 0.08 µM). Besides, the relative viability in experiment [1] (first compound 0.253 µM) is 0.115; in experiment [1] (first compound 0.8 µM), 0.167; in experiment [1] (first compound 2.53 µM) it was 0.15; with Ricolinostat + OSI-027 (first compound 0.08 µM), 0.593; in the experiment with Ricolinostat + OSI-027 (first compound 0.253 µM), 0.496; with Ricolinostat + OSI-027 (first compound 0.8 µM), 0.616. Also, the relative viability with Ricolinostat + OSI-027 (first compound 2.53 µM) was found to be 0.286; in experiment [2] (first compound 0.08 µM), 0.311; in experiment [2] (first compound 0.253 µM), 0.31; in experiment [2] (first compound 0.8 µM), 0.285; in experiment [2] (first compound 2.53 µM), 0.345.

On to NCI-H2347, for which the relative viability was determined as 0.931 in the experiment with TGX 221 + Linsitinib (first compound 0.08 µM); 0.972 with TGX 221 + Linsitinib (first compound 0.253 µM); 0.936 in the experiment with TGX 221 + Linsitinib (first compound 0.8 µM); 0.885 with TGX 221 + Linsitinib (first compound 2.53 µM); 0.786 with TGX 221 + Linsitinib (first compound 8 µM); 0.424 in experiment [1] (first compound 0.08 µM). In addition, the relative viability in experiment [1] (first compound 0.253 µM) came to 0.487; in experiment [1] (first compound 0.8 µM), 0.573; in experiment [1] (first compound 2.53 µM) it was 0.364; with Ricolinostat + OSI-027 (first compound 0.08 µM), 0.293; with Ricolinostat + OSI-027 (first compound 0.253 µM) it was 0.451; with Ricolinostat + OSI-027 (first compound 0.8 µM), 0.364. Further, the relative viability came out at 0.319 with Ricolinostat + OSI-027 (first compound 2.53 µM); 0.409 in experiment [2] (first compound 0.08 µM); 0.382 in experiment [2] (first compound 0.253 µM); 0.429 in experiment [2] (first compound 0.8 µM); 0.449 in experiment [2] (first compound 2.53 µM).

Turning to NCI-H2405, the relative viability with TGX 221 + Linsitinib (first compound 0.08 µM) was determined as 0.595; with TGX 221 + Linsitinib (first compound 0.253 µM) it was 0.698; with TGX 221 + Linsitinib (first compound 0.8 µM), 0.639; with TGX 221 + Linsitinib (first compound 2.53 µM) it was 0.697; in the experiment with TGX 221 + Linsitinib (first compound 8 µM) it was 0.573; in experiment [1] (first compound 0.08 µM), 0.615. Also, the relative viability in experiment [1] (first compound 0.253 µM) amounted to 0.929; in experiment [1] (first compound 0.8 µM), 0.69; in experiment [1] (first compound 2.53 µM), 0.874; with Ricolinostat + OSI-027 (first compound 0.08 µM) it was 0.481; in the experiment with Ricolinostat + OSI-027 (first compound 0.253 µM) it was 0.71; with Ricolinostat + OSI-027 (first compound 0.8 µM), 0.671. The relative viability amounted to 0.568 in the experiment with Ricolinostat + OSI-027 (first compound 2.53 µM); 0.916 in experiment [2] (first compound 0.08 µM); 1.04 in experiment [2] (first compound 0.253 µM); 1.06 in experiment [2] (first compound 0.8 µM); 1.12 in experiment [2] (first compound 2.53 µM).
